Reference: US11135176B1 (Florida A&M University, priority 2016, dated 2021)

Legend:
[1] = Solubility of IBU in lipids (visual); type: physicochemical; parameters: key to Solubility of IBU in Geleol mono and diglyceride NF / Solubility of IBU in Glyceryl monostearate / Solubility of IBU in Stearic acid / Solubility of IBU in COMPRITOL ® 888ATO / Solubility of IBU in PRECIROL ® ATO5: +: Clear or transparent mixture implies the drug is soluble in lipid; conditions: for Solubility of IBU in COMPRITOL ® 888ATO / Solubility of IBU in Geleol mono and diglyceride NF / Solubility of IBU in Glyceryl monostearate / Solubility of IBU in PRECIROL ® ATO5 / Solubility of IBU in Stearic acid: 90° C.
Procedure: The selection of lipid was done by evaluating the solubility of IBU in different lipids such as Compritol® 888ATO (glyceryl behenate), Precirol® ATOS (glyceryl palmitosterate), geleol mono and diglyceride NF, glyceryl monostearate and stearic acid. Briefly, 10 mg of IBU was weighed and added into Eppendorf tube containing 100 mg of lipid. The mixture was then heated for 10 minutes in a water bath at 90° C. to facilitate solubilization. […] Finally, total of 40 mg of drug was added in 100 mg of lipid and checked for the precipitation.

[2] = Drug solubility in 4% of surfactant, analyzed by HPLC; type: physicochemical
[3] = 10 mg of IBU/100 mg of solid lipid
[4] = 20 mg of IBU/100 mg of solid lipid
[5] = 30 mg of IBU/100 mg of solid lipid
[6] = 40 mg of IBU/100 mg of solid lipid

CC(C)Cc1ccc(C(C)C(=O)O)cc1 (stereo not shown) [IBU, ibuprofen]
Solubility of IBU in COMPRITOL ® 888ATO [1, 3]: +
Solubility of IBU in Geleol mono and diglyceride NF [1, 3]: +
Solubility of IBU in Glyceryl monostearate [1, 3]: +
Solubility of IBU in PRECIROL ® ATO5 [1, 3]: +
Solubility of IBU in Stearic acid [1, 3]: +
Solubility of IBU in COMPRITOL ® 888ATO [1, 4]: +
Solubility of IBU in Geleol mono and diglyceride NF [1, 4]: +
Solubility of IBU in Glyceryl monostearate [1, 4]: +
Solubility of IBU in PRECIROL ® ATO5 [1, 4]: +
Solubility of IBU in Stearic acid [1, 4]: +
Solubility of IBU in COMPRITOL ® 888ATO [1, 5]: +
Solubility of IBU in Geleol mono and diglyceride NF [1, 5]: +
Solubility of IBU in Glyceryl monostearate [1, 5]: +
Solubility of IBU in PRECIROL ® ATO5 [1, 5]: +
Solubility of IBU in Stearic acid [1, 5]: +
Solubility of IBU in COMPRITOL ® 888ATO [1, 6]: +
Solubility of IBU in Geleol mono and diglyceride NF [1, 6]: +
Solubility of IBU in Glyceryl monostearate [1, 6]: +
Solubility of IBU in PRECIROL ® ATO5 [1, 6]: +
Solubility of IBU in Stearic acid [1, 6]: +
solubility of IBU in the lipid ([1]; 40 of IBU, heated at 90 C, Compritol 888 ATO, Precirol ATO 5, geleol mono and diglyceride NF, glyceryl monostearate and stearic acid): completely soluble
drug soluble in the surfactant [2]: less than 5%
